Reference: patent publication US7994127B2, “Treatment of rett syndrome” (Massachusetts Institute of Technology, priority 2007, dated 2011)

Tests used:
[1] = test system: visual cortex of adult MeCP2+/− mice; test: Ocular dominance plasticity after monocular deprivation, optical imaging of intrinsic signals; type: in vivo, mouse; details: 180 μg/kg/day i.p. starting at 2 weeks; P60 MeCP2 KO mice
rat hippocampal cultures = details: Ramsey et al., 2005; Xing et al., 2007; cited from earlier work
[2] = in vivo; cited from earlier work
synaptic transmission = test: Synaptic transmission during direct application of the molecules; type: cell-based, mouse; details: direct application of the molecule
Excerpt: rhIGF1 produced a similar improvement as (1-3)IGF-1 in all maturational signatures measured, including (A) synaptic transmission levels, and (B) circuit stability (by preventing ocular dominance plasticity) in P60 MeCP2 KO mice.
The above data focused on the (1-3)IGF-1 fragment of IGF1 to promote IGF1 signaling. We also have tested the effect of the full-length IGF1 peptide already approved for pediatric administration in human patients (for short stature indications). We have verified a correspondence in the effects of (1-3)IGF-1 and recombinant human IGF1 (rhIGF1).

| Molecule | maturation of cortical circuitry during ocular dominance plasticity (FIG. 9B) [1] | excitatory postsynaptic currents (rat hippocampal cultures) | crossing the blood-brain barrier [2] | synaptic activity / synaptic transmission levels (FIG. 9A) (synaptic transmission) |
| --- | --- | --- | --- | --- |
| rhIGF1: full-length IGF1 peptide already approved for pediatric administration in human patients; recombinant human IGF1 | promoted to similar degrees | elevate excitatory postsynaptic currents significantly | capable of crossing the blood-brain barrier | striking enhancements of synaptic activity |
| BDNF: brain derived neurotrophic factor (protein, UniProt P23560 19-247, looked up) Neurotrophic factor BDNF …: APMKEANIRGQGGLAYPGVRTHGTLESVNGPKAGSRGLTSLADTFEHVIEELLDEDQKVRPNEENNKDADLYTSRVMLSSQVPLEPPLLFLLEEYKNYLDAANMSMRVRRHSDPARRGELSVCDSISEWVTAADKKTAVDMSGGTVTVLEKVPVSKGQLKQYFYETKCNPMGYTKEGCRGIDKRHWNSQCRTTQSYVRALTMDSKKRIGWRFIRIDTSCVCTLTIKRGR |  |  | poor efficiency at crossing the blood brain barrier |  |
